From publication PMC8773473, “Lithocholic Acid Amides as Potent Vitamin D Receptor Agonists” (Biomolecules, 2022)
Where two headings read alike, the source gives them in different places.

T1: VDR (Homo sapiens, UniProt P11473)
T1 construct: expressed in transfected cells; host or cells: HEK293
T1 sequence (P11473 1-427): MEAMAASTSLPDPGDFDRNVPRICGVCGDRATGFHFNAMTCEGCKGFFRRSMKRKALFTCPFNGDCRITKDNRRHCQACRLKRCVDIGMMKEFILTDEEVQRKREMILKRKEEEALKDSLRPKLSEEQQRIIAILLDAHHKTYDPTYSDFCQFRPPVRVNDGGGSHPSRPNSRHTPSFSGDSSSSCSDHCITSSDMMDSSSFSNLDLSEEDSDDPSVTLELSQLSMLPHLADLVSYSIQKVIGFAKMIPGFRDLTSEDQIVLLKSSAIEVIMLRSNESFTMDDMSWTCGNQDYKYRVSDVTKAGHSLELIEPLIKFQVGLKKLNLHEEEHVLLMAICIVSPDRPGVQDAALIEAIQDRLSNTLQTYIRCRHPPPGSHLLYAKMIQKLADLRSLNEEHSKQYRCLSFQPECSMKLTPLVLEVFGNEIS

T2: rat VDR LBD (residues 116–423, Δ165–211) (rat, UniProt P13053 116-423, Δ165–211)
T2 construct: Cloned in pET14b; tag removed by thrombin digestion; also called rVDR LBD; source: Escherichia coli C41, purified (Ni-NTA, SP-Sepharose, thrombin digestion, gel filtration); not shown: His6, N-terminal, cleaved
T2 sequence (looked up): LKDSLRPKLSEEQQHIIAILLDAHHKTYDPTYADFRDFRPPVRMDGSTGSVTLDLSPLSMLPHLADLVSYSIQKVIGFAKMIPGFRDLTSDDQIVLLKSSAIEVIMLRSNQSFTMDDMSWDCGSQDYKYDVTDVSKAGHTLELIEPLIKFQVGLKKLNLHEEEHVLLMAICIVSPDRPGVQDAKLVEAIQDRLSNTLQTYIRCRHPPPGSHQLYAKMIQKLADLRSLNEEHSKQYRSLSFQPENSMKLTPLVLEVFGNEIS


Key:
HL-60 cells = assay: HL-60 cell differentiation-inducing assay (NBT reduction); assay type: cell-based, human; settings: for EC50: Homo sapiens, HL-60, 96 h, read-out: HL-60 Assay EC50
Description: The vitamin D activity of the synthesized lithocholic acid amide derivatives was evaluated in terms of cell differentiation-inducing activity toward human acute promyelocytic leukemia cell line HL-60 [12]. HL-60 cell differentiation was evaluated in terms of the ratio of nitroblue tetrazolium (NBT)-positive cells (Figure 3 and Table 1).
Control cells were treated with the same volume of ethanol alone. 1α,25(OH)2D3 was always assayed at the same time as a positive control. The cells were incubated at 37 °C under 5% CO2 in air for 4 days. The percentage of differentiated cells was determined by nitro-blue tetrazolium (NBT) reduction assay. […] The percentage of cells containing blue-black formazan was determined in a minimum of 200 cells. All experiments were done in triplicate.

[1] = parameters: method as in PMID 33853023; settings: cited from earlier work
[2] = preliminary pharmacokinetics in mice (data not shown); assay type: in vivo; settings: preliminary results
VDR = target: T1, VDR; assay: VDR transactivation assay (luciferase reporter) in HEK293 cells; assay type: cell-based
Description: Human embryonic kidney HEK293 cells (RIKEN Cell Bank, Tsukuba, Japan) were cultured in Dulbecco’s modified Eagle’s medium containing 5% FBS, 100 U/mL penicillin, and 0.1 mg/mL streptomycin (Nacalai Tesque, Kyoto, Japan). Transfections used 15 ng of pCMX-hVDR, 50 ng of TK-Spp × 3-LUC reporter plasmid, and 10 ng of pCMX-β-galactosidase for each well of a 96-well plate, and were performed by the calcium phosphate coprecipitation assay as described previously. Eight hours after transfection, test compounds were added. Cells were harvested after 16–24 h and were assayed for luciferase and β-galactosidase activity using a luminometer and a microplate reader (Molecular Devices, Sunnyvale, CA, USA). Luciferase data were normalized to the internal β-galactosidase control. All experiments were done in triplicate.

[3] = target: T2, rat VDR LBD (residues 116–423, Δ165–211); assay: crystal structure; VDR LBD with about 10 equiv of ligand 7b and coactivator peptide (25 mM Tris-HCl, pH 8.0; 50 mM NaCl; 10 mM DTT; 0.02% NaN3); vapor diffusion, 0.2 M potassium citrate tribasic monohydrate, 20% (w/v) PEG3350, 20 °C; 1.94 Å; settings: both partners purified
[4] = ratio of NBT-positive cells, 4 days incubation, 'Inactive' = no or week active at the concentrations below 1 μM
[5] = HEK293 cells transfected with pCMX-hVDR and TK-Spp×3-LUC reporter, 'Inactive' = no or week active at the concentrations below 1 μM

Row | Molecule | EC50 (HL-60 cells; [4]) [nM] | EC50 (VDR; [5]) [nM] | other results
1 | C=C1/C(=C\C=C2/CCC[C@]3(C)[C@@H]([C@H](C)CCCC(C)(C)O)CC[C@@H]23)C[C@@H](O)C[C@@H]1O [1α,25(OH)2D3 (1), 1α,25-Dihydroxyvitamin D3, reference compound] | – | – | EC50 (HL-60 cells): 0.74 nM
2 | C[C@H](CCC(=O)O)[C@H]1CC[C@H]2[C@@H]3CC[C@@H]4C[C@H](CC(C)(C)O)CC[C@]4(C)[C@H]3CC[C@]12C [Compound 3] | 1.01 | 0.083 | calcemic activity compared with 1α,25(OH)2D3 (1) [1]: lower calcemic activity than 1; calcemic activity compared with 1α,25(OH)2D3 (1) ([1]; listed as 3 (Dcha-20)): lower calcemic activity; elimination from the serum [2]: eliminated very quickly
3 | C[C@H](CCC(N)=O)[C@H]1CC[C@H]2[C@@H]3CC[C@@H]4C[C@H](CC(C)(C)O)CC[C@]4(C)[C@H]3CC[C@]12C [Compound 4a] | 0.44 | 0.12 | –
4 | CNC(=O)CC[C@@H](C)[C@H]1CC[C@H]2[C@@H]3CC[C@@H]4C[C@H](CC(C)(C)O)CC[C@]4(C)[C@H]3CC[C@]12C [Compound 4b] | – | 0.96 | HL-60 Assay EC50 (HL-60 cells; [4]): Inactive ^a
5 | C[C@H](CCC(=O)NO)[C@H]1CC[C@H]2[C@@H]3CC[C@@H]4C[C@H](CC(C)(C)O)CC[C@]4(C)[C@H]3CC[C@]12C [Compound 5a] | 1.18 | 0.14 | –
6 | CONC(=O)CC[C@@H](C)[C@H]1CC[C@H]2[C@@H]3CC[C@@H]4C[C@H](CC(C)(C)O)CC[C@]4(C)[C@H]3CC[C@]12C [Compound 5b] | 1.45 | 0.14 | –
7 | C[C@H](CCC(=O)NC#N)[C@H]1CC[C@H]2[C@@H]3CC[C@@H]4C[C@H](CC(C)(C)O)CC[C@]4(C)[C@H]3CC[C@]12C [Compound 6] | 0.32 | 0.1 | –
8 | C[C@H](CCC(=O)NCC(=O)O)[C@H]1CC[C@H]2[C@@H]3CC[C@@H]4C[C@H](CC(C)(C)O)CC[C@]4(C)[C@H]3CC[C@]12C [Compound 7a] | 2.03 | – | –
9 | C[C@H](CCC(=O)NCCC(=O)O)[C@H]1CC[C@H]2[C@@H]3CC[C@@H]4C[C@H](CC(C)(C)O)CC[C@]4(C)[C@H]3CC[C@]12C [Compound 7b] | 0.45 | 0.89 | –
10 | C[C@H](CCC(=O)NCCCC(=O)O)[C@H]1CC[C@H]2[C@@H]3CC[C@@H]4C[C@H](CC(C)(C)O)CC[C@]4(C)[C@H]3CC[C@]12C [Compound 7c] | 0.64 | 0.081 | –
11 | C[C@H](CCC(=O)NCS(=O)(=O)O)[C@H]1CC[C@H]2[C@@H]3CC[C@@H]4C[C@H](CC(C)(C)O)CC[C@]4(C)[C@H]3CC[C@]12C [Compound 8a] | 18.5 | – | –
12 | C[C@H](CCC(=O)NCCS(=O)(=O)O)[C@H]1CC[C@H]2[C@@H]3CC[C@@H]4C[C@H](CC(C)(C)O)CC[C@]4(C)[C@H]3CC[C@]12C [Compound 8b] | 6.56 | – | –
13 | C[C@H](CCC(=O)O)[C@H]1CC[C@H]2[C@@H]3CC[C@@H]4C[C@H](O)CC[C@]4(C)[C@H]3CC[C@]12C [LCA (2), Lithocholic acid] | – | – | HL-60 Assay EC50 (HL-60 cells; [4]): Inactive ^a; Transactivation Assay EC50 (VDR; [5]): Inactive ^a; VDR transactivation activity (in words) (VDR; HEK293 cells, LCA: at the concentration below 1 μM): did not show the activity
14 | H-KNHPMLMNLLKDN-NH2 (also called MED1 peptide; source: synthetic peptide) [coactivator peptide (H2N-KNHPMLMNLLKDN-CONH2) derived from DRIP205] | – | – | binding result [3]: binds
